Measured values reported in patent US7138361B2, “Herbicidal heterocycles” (E. I. du Pont de Nemours and Company, priority 2000, dated 2006).

Tests used:
Assay type in all cases: in vivo
[1] = system: velvetleaf (Abutilon theophrasti); experiment: Test B preemergence
Summary of the method: (§1)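 Pre: seeded pots sprayed, chemical in non-phytotoxic solvent/surfactant mix. Post: plants 2–18 cm, 1–4 leaf, same formulation. Greenhouse 13–15 d; visual % control vs untreated, 0–100 scale.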

[2] = system: crabgrass (Digitaria sanguinalis); experiment: Test B preemergence
Summary of the method: as §1

[3] = system: barnyardgrass (Echinochloa crus-galli); experiment: Test B preemergence
Summary of the method: as §1

[4] = system: Surinam grass (Brachiaria decumbens); experiment: Test B preemergence
Summary of the method: as §1

[5] = system: lambsquarters (Chenopodium album); experiment: Test B preemergence
Summary of the method: as §1

[6] = system: pigweed (Amaranthus retroflexus); experiment: Test B preemergence
Summary of the method: as §1

[7] = system: morning glory (Ipomoea hederacea); experiment: Test B preemergence
Summary of the method: as §1

[8] = system: giant foxtail (Setaria faberii); experiment: Test B preemergence
Summary of the method: as §1

rice (Oryza saliva) = experiment: Test B preemergence
Summary of the method: as §1

corn (Zea mays) [9] = experiment: Test B preemergence
Summary of the method: as §1

[10] = system: cocklebur (Xanthium strumarium); experiment: Test B preemergence
Summary of the method: as §1

[11] = system: velvetleaf (Abutilon theophrasti); experiment: Test B postemergence; settings: 13 to 15 days
Summary of the method: as §1

[12] = system: wheat (Triticum aestivum); experiment: Test B postemergence; settings: 13 to 15 days
Summary of the method: as §1

[13] = system: crabgrass (Digitaria sanguinalis); experiment: Test B postemergence; settings: 13 to 15 days
Summary of the method: as §1

[14] = system: barnyardgrass (Echinochloa crus-galli); experiment: Test B postemergence; settings: 13 to 15 days
Summary of the method: as §1

[15] = system: Surinam grass (Brachiaria decumbens); experiment: Test B postemergence; settings: 13 to 15 days
Summary of the method: as §1

[16] = system: lambsquarters (Chenopodium album); experiment: Test B postemergence; settings: 13 to 15 days
Summary of the method: as §1

[17] = system: pigweed (Amaranthus retroflexus); experiment: Test B postemergence; settings: 13 to 15 days
Summary of the method: as §1

wild oat (Avena fatua) = experiment: Test B postemergence; settings: 13 to 15 days
Summary of the method: as §1

[18] = system: morning glory (Ipomoea hederacea); experiment: Test B postemergence; settings: 13 to 15 days
Summary of the method: as §1

[19] = system: giant foxtail (Setaria faberii); experiment: Test B postemergence; settings: 13 to 15 days
Summary of the method: as §1

[20] = system: blackgrass (Alopecurus myosuroides); experiment: Test B postemergence; settings: 13 to 15 days
Summary of the method: as §1

corn (Zea mays) [21] = experiment: Test B postemergence; settings: 13 to 15 days
Summary of the method: as §1

[22] = system: cocklebur (Xanthium strumarium); experiment: Test B postemergence; settings: 13 to 15 days
Summary of the method: as §1

[23] = system: smallflower flatsedge (Cyperus difformis); experiment: Test C flooded paddy test; settings: for Flatsedge plant response rating: Flooded Paddy, scale 0 to 100, 0 no effect, 100 complete control; for Plant response rating, Flatsedge: flooded paddy test, scale 0 to 100 (0 no effect, 100 complete control)
Summary of the method: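 Response on a 0-to-100 scale (no effect to complete control) was assessed by eye versus controls. Plants had reached 2 leaves when treated in flooded paddy conditions. The assessment took place after 12–14 days of greenhouse growth.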

[24] = Preemergence, Rate 500 g/ha, scale 0 to 100, 0 no effect, 100 complete control
[25] = preemergence, Rate 125 g/ha, scale of 0 to 100 where 0 is no effect and 100 is complete control, 13 to 15 days
[26] = Rate 125 g/ha, scale 0 (no effect) to 100 (complete control)
[27] = Rate 500 g/ha, scale 0 to 100, 0 is no effect, 100 is complete control

Which results are given for `COC(=O)c1cccc(N2CCC(n3ccc(C(C)(C)C)n3)C2=O)c1` (centres unmarked) [Compound 73]?
Plant response rating, Velvetleaf [1, 24]: 100; Plant response rating, Velvetleaf [1, 25]: 90; Plant response rating, Crabgrass [2, 24]: 100; Plant response rating, Crabgrass [2, 25]: 100; Plant response rating, Barnyardgrass [3, 24]: 100; Plant response rating, Barnyardgrass [3, 25]: 100; Plant response rating, Surinam grass [4, 24]: 90; Plant response rating, Surinam grass [4, 25]: 50; Plant response rating, Lambsquarters [5, 24]: 100; Plant response rating, Lambsquarters [5, 25]: 100; Plant response rating, Pigweed [6, 24]: 100; Plant response rating, Pigweed [6, 25]: 100; Plant response rating, Morningglory [7, 24]: 100; Plant response rating, Morningglory [7, 25]: 0; Plant response rating, Foxtail, Giant [8, 24]: 100; Plant response rating, Foxtail, Giant [8, 25]: 100; Plant response rating, Rice (rice (Oryza saliva); [24]): 40; Plant response rating, Rice (rice (Oryza saliva); [25]): 30; Plant response rating, Corn (corn (Zea mays) [9]; [24]): 30; Plant response rating, Corn (corn (Zea mays) [9]; [25]): 0; Plant response rating, Cocklebur [10, 24]: 90; Plant response rating, Cocklebur [10, 25]: 0; Plant response rating, Velvetleaf [11, 26]: 50; Plant response rating, Velvetleaf [11, 27]: 70; Plant response rating, Wheat [12, 26]: 0; Plant response rating, Wheat [12, 27]: 0; Plant response rating, Crabgrass [13, 26]: 0; Plant response rating, Crabgrass [13, 27]: 50; Plant response rating, Barnyardgrass [14, 26]: 30; Plant response rating, Barnyardgrass [14, 27]: 90; Plant response rating, Surinam grass [15, 26]: 0; Plant response rating, Surinam grass [15, 27]: 0; Plant response rating, Lambsquarters [16, 26]: 0; Plant response rating, Lambsquarters [16, 27]: 70; Plant response rating, Pigweed [17, 26]: 20; Plant response rating, Pigweed [17, 27]: 90; Plant response rating, Wild Oat (wild oat (Avena fatua); [26]): 0; Plant response rating, Wild Oat (wild oat (Avena fatua); [27]): 0; Plant response rating, Morningglory [18, 26]: 20; Plant response rating, Morningglory [18, 27]: 20; Plant response rating, Foxtail, Giant [19, 26]: 20; Plant response rating, Foxtail, Giant [19, 27]: 50; Plant response rating, Blackgrass [20, 26]: 0; Plant response rating, Blackgrass [20, 27]: 0; Plant response rating, Corn (corn (Zea mays) [21]; [26]): 30; Plant response rating, Corn (corn (Zea mays) [21]; [27]): 40; Plant response rating, Cocklebur [22, 26]: 20; Plant response rating, Cocklebur [22, 27]: 90; Flatsedge plant response rating ([23]; Rate 250 g/ha): 100; Flatsedge plant response rating ([23]; Rate 500 g/ha): 100; Plant response rating, Flatsedge ([23]; Rate 62 g/ha): 90; Plant response rating, Flatsedge ([23]; Rate 125 g/ha): 100

Which “Plant response rating, Velvetleaf” value [1, 24] does the source give for `CCC(CC)c1ccn(C2CCN(c3ccc(C)c(OC)c3)C2=O)n1` (centres unmarked) [Compound 81] here?
Its value is 80.

And the “Plant response rating, Velvetleaf” value [1, 25]?
The value was 70.

And the “Plant response rating, Crabgrass” value [2, 24]?
Its value is 100.

What about the “Plant response rating, Crabgrass” value [2, 25] of the same compound?
The value was 100.

What about the “Plant response rating, Barnyardgrass” value [3, 24] of the same compound?
The value was 100.

And the “Plant response rating, Barnyardgrass” value [3, 25]?
Its value is 100.

And the “Plant response rating, Surinam grass” value [4, 24]?
The value was 100.

What about the “Plant response rating, Surinam grass” value [4, 25] of the same compound?
The value was 90.

What about the “Plant response rating, Lambsquarters” value [5, 24] of the same compound?
Its value is 100.

And the “Plant response rating, Lambsquarters” value [5, 25]?
Its value is 100.

What about the “Plant response rating, Pigweed” value [6, 24] of the same compound?
Its value is 100.

And the “Plant response rating, Pigweed” value [6, 25]?
Its value is 100.

What about the “Plant response rating, Morningglory” value [7, 24] of the same compound?
Its value is 100.

What about the “Plant response rating, Morningglory” value [7, 25] of the same compound?
Its value is 30.

And the “Plant response rating, Foxtail, Giant” value [8, 24]?
Its value is 100.

And the “Plant response rating, Foxtail, Giant” value [8, 25]?
Its value is 100.

What about the “Plant response rating, Rice” value (rice (Oryza saliva); [24]) of the same compound?
The value was 90.

And the “Plant response rating, Rice” value (rice (Oryza saliva); [25])?
Its value is 50.

And the “Plant response rating, Corn” value (corn (Zea mays) [9]; [24])?
The value was 30.

And the “Plant response rating, Corn” value (corn (Zea mays) [9]; [25])?
The value was 0.

And the “Plant response rating, Cocklebur” value [10, 24]?
The value was 90.

What about the “Plant response rating, Cocklebur” value [10, 25] of the same compound?
Its value is 0.

And the “Plant response rating, Velvetleaf” value [11, 26]?
Its value is 80.

And the “Plant response rating, Velvetleaf” value [11, 27]?
Its value is 90.

And the “Plant response rating, Wheat” value [12, 26]?
The value was 0.

What about the “Plant response rating, Wheat” value [12, 27] of the same compound?
Its value is 0.

And the “Plant response rating, Crabgrass” value [13, 26]?
Its value is 0.

What about the “Plant response rating, Crabgrass” value [13, 27] of the same compound?
Its value is 30.

What about the “Plant response rating, Barnyardgrass” value [14, 26] of the same compound?
Its value is 0.

And the “Plant response rating, Barnyardgrass” value [14, 27]?
Its value is 0.

What about the “Plant response rating, Surinam grass” value [15, 26] of the same compound?
The value was 0.

And the “Plant response rating, Surinam grass” value [15, 27]?
Its value is 10.

What about the “Plant response rating, Lambsquarters” value [16, 26] of the same compound?
Its value is 20.

And the “Plant response rating, Lambsquarters” value [16, 27]?
The value was 90.

And the “Plant response rating, Pigweed” value [17, 26]?
Its value is 70.

What about the “Plant response rating, Pigweed” value [17, 27] of the same compound?
The value was 90.

And the “Plant response rating, Wild Oat” value (wild oat (Avena fatua); [26])?
Its value is 0.

What about the “Plant response rating, Wild Oat” value (wild oat (Avena fatua); [27]) of the same compound?
The value was 0.

What about the “Plant response rating, Morningglory” value [18, 26] of the same compound?
Its value is 80.

What about the “Plant response rating, Morningglory” value [18, 27] of the same compound?
Its value is 100.

And the “Plant response rating, Foxtail, Giant” value [19, 26]?
The value was 0.

And the “Plant response rating, Foxtail, Giant” value [19, 27]?
Its value is 0.

And the “Plant response rating, Blackgrass” value [20, 26]?
The value was 0.

And the “Plant response rating, Blackgrass” value [20, 27]?
The value was 0.

And the “Plant response rating, Corn” value (corn (Zea mays) [21]; [26])?
The value was 10.

What about the “Plant response rating, Corn” value (corn (Zea mays) [21]; [27]) of the same compound?
The value was 10.

What about the “Plant response rating, Cocklebur” value [22, 26] of the same compound?
The value was 90.

What about the “Plant response rating, Cocklebur” value [22, 27] of the same compound?
Its value is 100.

What about the “Flatsedge plant response rating” value ([23]; Rate 250 g/ha) of the same compound?
The value was 90.

And the “Flatsedge plant response rating” value ([23]; Rate 500 g/ha)?
Its value is 90.

And the “Plant response rating, Flatsedge” value ([23]; Rate 62 g/ha)?
The value was 90.

What about the “Plant response rating, Flatsedge” value ([23]; Rate 125 g/ha) of the same compound?
Its value is 90.
